In the supplement of paper PMC10733146:

How the values were obtained:
Assay in all cases: viability relative to DMSO control (fraction); higher = less drug effect (more viable cells)
Conditions in all cases: 48 h
[1] = system: primary AML patient cells (S079)
In short: (§1)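 Using 384-well plates with compounds already plated at five concentrations, one well per concentration, 4 × 10^4 primary mononuclear tumour cells were added per well. Cells were Ficoll-isolated from blood or bone marrow or came from processed lymph node, fresh or cryopreserved. They were kept for 48 h at 37 °C and 5% CO2 in RPMI-1640 supplemented with penicillin/streptomycin, L-glutamine and human serum, and viability was read as CellTiter-Glo luminescence relative to the median of 16 inner DMSO wells.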

[2] = system: primary MCL patient cells (S053)
In short: as §1

[3] = system: primary MCL patient cells (S063)
In short: as §1

[4] = system: primary AML patient cells (S056)
In short: as §1

[5] = system: primary AML patient cells (S012)
In short: as §1

[6] = system: primary AML patient cells (S006)
In short: as §1

[7] = system: primary MCL patient cells (S041)
In short: as §1

[8] = system: primary AML patient cells (S072)
In short: as §1

[9] = system: primary AML patient cells (S060)
In short: as §1

[10] = system: primary CLL patient cells (S031)
In short: as §1

[11] = system: primary AML patient cells (S009)
In short: as §1

[12] = system: primary ALL patient cells (S088)
In short: as §1

[13] = system: primary AML patient cells (S085)
In short: as §1

[14] = system: primary CLL patient cells (S043)
In short: as §1

[15] = system: primary DLBCL patient cells (S082)
In short: as §1

[16] = system: primary AML patient cells (S017)
In short: as §1

[17] = system: primary FL patient cells (S087)
In short: as §1

[18] = system: primary B-PLL patient cells (S016)
In short: as §1

[19] = system: primary AML patient cells (S071)
In short: as §1

[20] = system: primary BL patient cells (S005)
In short: as §1

SMILES: Nc1ncn([C@@H]2O[C@H](CO)[C@@H](O)[C@H]2O)c(=O)n1 [Azacytidine (Vidaza)]
- viability ([1]; 0.032 µM): 0.972
- viability ([1]; 0.16 µM): 1.09
- viability ([1]; 0.8 µM): 0.942
- viability ([1]; 4 µM): 0.671
- viability ([1]; 20 µM): 0.304
- viability ([2]; 0.032 µM): 0.924
- viability ([2]; 0.16 µM): 0.999
- viability ([2]; 0.8 µM): 0.587
- viability ([2]; 4 µM): 0.351
- viability ([2]; 20 µM): 0.289
- viability ([3]; 0.032 µM): 1.04
- viability ([3]; 0.16 µM): 1.07
- viability ([3]; 0.8 µM): 1.03
- viability ([3]; 4 µM): 0.839
- viability ([3]; 20 µM): 0.173
- viability ([4]; 0.032 µM): 0.987
- viability ([4]; 0.16 µM): 0.997
- viability ([4]; 0.8 µM): 0.467
- viability ([4]; 4 µM): 0.0878
- viability ([4]; 20 µM): 0.078
- viability ([5]; 0.032 µM): 0.958
- viability ([5]; 0.16 µM): 1.01
- viability ([5]; 0.8 µM): 1.04
- viability ([5]; 4 µM): 0.92
- viability ([5]; 20 µM): 0.766
- viability ([6]; 0.032 µM): 1.07
- viability ([6]; 0.16 µM): 0.973
- viability ([6]; 0.8 µM): 0.426
- viability ([6]; 4 µM): 0.0789
- viability ([6]; 20 µM): 0.0614
- viability ([7]; 0.032 µM): 1.04
- viability ([7]; 0.16 µM): 1.03
- viability ([7]; 0.8 µM): 0.812
- viability ([7]; 4 µM): 0.151
- viability ([7]; 20 µM): 0.0515
- viability ([8]; 0.032 µM): 1.03
- viability ([8]; 0.16 µM): 1.02
- viability ([8]; 0.8 µM): 0.958
- viability ([8]; 4 µM): 0.83
- viability ([8]; 20 µM): 0.652
- viability ([9]; 0.032 µM): 1
- viability ([9]; 0.16 µM): 1.02
- viability ([9]; 0.8 µM): 1.02
- viability ([9]; 4 µM): 1.02
- viability ([9]; 20 µM): 0.923
- viability ([10]; 0.032 µM): 1.08
- viability ([10]; 0.16 µM): 1.01
- viability ([10]; 0.8 µM): 0.989
- viability ([10]; 4 µM): 0.539
- viability ([10]; 20 µM): 0.0698
- viability ([11]; 0.032 µM): 0.943
- viability ([11]; 0.16 µM): 0.905
- viability ([11]; 0.8 µM): 0.916
- viability ([11]; 4 µM): 0.695
- viability ([11]; 20 µM): 0.468
- viability ([12]; 0.032 µM): 0.958
- viability ([12]; 0.16 µM): 1.06
- viability ([12]; 0.8 µM): 0.934
- viability ([12]; 4 µM): 0.552
- viability ([12]; 20 µM): 0.233
- viability ([13]; 0.032 µM): 1.22
- viability ([13]; 0.16 µM): 0.976
- viability ([13]; 0.8 µM): 0.638
- viability ([13]; 4 µM): 0.14
- viability ([13]; 20 µM): 0.0812
- viability ([14]; 0.032 µM): 0.937
- viability ([14]; 0.16 µM): 1.11
- viability ([14]; 0.8 µM): 0.889
- viability ([14]; 4 µM): 0.716
- viability ([14]; 20 µM): 0.55
- viability ([15]; 0.032 µM): 0.969
- viability ([15]; 0.16 µM): 1.08
- viability ([15]; 0.8 µM): 1.07
- viability ([15]; 4 µM): 1.04
- viability ([15]; 20 µM): 0.26
- viability ([16]; 0.032 µM): 0.912
- viability ([16]; 0.16 µM): 0.96
- viability ([16]; 0.8 µM): 0.935
- viability ([16]; 4 µM): 0.661
- viability ([16]; 20 µM): 0.562
- viability ([17]; 0.032 µM): 1.1
- viability ([17]; 0.16 µM): 1.06
- viability ([17]; 0.8 µM): 0.997
- viability ([17]; 4 µM): 0.906
- viability ([17]; 20 µM): 0.678
- viability ([18]; 0.032 µM): 1.03
- viability ([18]; 0.16 µM): 1.06
- viability ([18]; 0.8 µM): 0.912
- viability ([18]; 4 µM): 0.142
- viability ([18]; 20 µM): 0.0474
- viability ([19]; 0.032 µM): 0.968
- viability ([19]; 0.16 µM): 0.985
- viability ([19]; 0.8 µM): 0.695
- viability ([19]; 4 µM): 0.29
- viability ([19]; 20 µM): 0.131
- viability ([20]; 0.032 µM): 0.847
- viability ([20]; 0.16 µM): 0.862
- viability ([20]; 0.8 µM): 0.841
- viability ([20]; 4 µM): 0.766
- viability ([20]; 20 µM): 0.708
